Patent publication EP4029501A1, “COMBINATION OF POLYAROMATIC UREA DERIVATIVES AND GLUCOCORTICOID OR HDAC INHIBITOR FOR THE TREATMENT OF DISEASES OR CONDITIONS ASSOCIATED WITH MUSCLE CELLS AND/OR SATELLITE CELLS” (Anagenesis Biotechnologies, priority 2021, dated 2022)

Tested on: muscle progenitors derived from DMD hiPSC
Test: Myotube assay: total myotube area per well (alpha-actinin staining)
Type: cell-based, human
Details: Homo sapiens, Myotube, 72 h, DMD or WT cell source not given; for Emax: efficacy, MA = normalized Myotube Area, 3 days incubation; for EC50: myogenic activity, half-maximal generation of myotubes, 10 points dose-response 1.5 nM to 30 µM, 3 days
Experimental: An in vitro assay for assessing the efficacy of compounds for use in treating, ameliorating, delaying, curing and/or preventing a disease or condition associated with muscle cells and/or satellite cells is described in example 78. Herein, the generation of myotubes and satellite cells after adding a compound to a myotube assay workflow is assessed. Said myotube assay workflow is derived from wild-type or DMD human induced pluripotent stem cells (WT hiPSC or DMD hiPSC). Before the addition of said compound, the assay comprises satellite-like cells, but no significant amount of myotubes.
The efficacy of said compound for use in treating, ameliorating, delaying, curing and/or preventing a disease or condition associated with muscle cells and/or satellite cells is positively correlated with the generation of myotubes (i.e. the increase of the area occupied by myotubes on the assay) and/or satellite cells (i.e. the increase of the number of satellite cells) in the assay after adding said compound. The generation of myotubes by the addition of said compound is expressed as the EC50 value, the concentration of said compound that corresponds with the half-maximal generation of myotubes, and the MA (normalized myotube area) value, the normalized area occupied by generated myotubes on the assay. […] Since muscle cells are formed from myotubes during myogenesis, the generation of myotubes in the assay is a good indicator of the ability of said compound to induce the formation of functional muscle cells in vivo. The number of satellite cells is measured as the percentage of Pax7 positive cells, relative to the total number of cells in the assay, as shown in Figure 3. The percentage of Pax7 is a good indicator of the ability of said compound to induce the formation of satellite cells which are able to play a role in muscle repair and regeneration in vivo.
DMD human induced pluripotent stem cells (hereafter "DMD hiPSC"), generated from the NCRM-1 hiPSC WT cell line by gene editing, or WT human induced pluripotent stem cells (hereafter "WT hiPSC"), being NCRM-1 hiPSC wt cell line, have been differentiated according to Chal et al. 2015, 2016, to produce muscle progenitors (hereafter "hMP"). The hMP population contains satellite-like cells (i.e Pax7-positive cells) and satellite cells' progenies (i.e. Myogenin-positive cells).
Figure 1 provides an example of a Myotube assay workflow. At day 0, hMP are thawed and 3.1 million cells are plated into a T75-flask coated with hESC-qualified Matrigel™ (Corning) in SkGM proliferating medium (PromoCells), supplemented with 5 µM Y-27632 (Tocris Bioscience). On day 2, SkGM proliferating medium is refreshed. On day 4, hMP are harvested and transferred into a 384-well plate coated with collagen type I at a density of 3500 cells/well in a DMEM-based medium, containing 5% of knockout serum replacement (Gibco), 1% PenStrep (Gibco), 1% MEM NEAA (Gibco) and 0.1 mM 2-mercaptoethanol (Gibco) (hereafter "K5 medium") and 5 µM Y-27632. Compounds to be tested are then added in the medium and incubated for 3 days at 37°C. On day 7, cells are fixed and immunostained. For example, myotubes (alpha-actinin staining) and satellite-like (Pax7 staining) cells can be analyzed for total myotube area per well or Pax7-positive cell quantification.
DMD hMP were put in the Myotube assay according to the workflow described in Example 2.1. In particular, compound (i) was added at concentrations ranging from 1.5 nM to 30 µM, starting from day 4. hMP were cultivated for three more days in presence of compound (i), then fixed and analyzed for quantification of total myotube area per well. Duplicates of each condition were averaged.

Row | EC50 | SMILES | Emax
1 | 500 to 1000 nM | Cc1cc(NC(=O)Nc2ccc(Oc3ccnc4[nH]c(=O)cnc34)cc2F)n(-c2ccccc2)n1 [(a), 1-(2-fluoro-4-((3-oxo-3,4-dihydropyrido[2,3-b]pyrazin-8-yl)oxy)phenyl)-3-(3-methyl-1-phenyl-1 H-pyrazol-5-yl)urea] | 25 to 50%
2 | 500 to 1000 nM | CNC(=O)c1ccc(Oc2cccc(NC(=O)Nc3cc(C(C)(C)C)nn3-c3ccccc3)c2)cn1 [(ab), 5-(3-(3-(3-(tert-butyl)-1-phenyl-1H-pyrazol-5-yl)ureido)phenoxy)-N-methylpicolinamide] | 50 to 75%
3 | 1000 to 5000 nM | CC(C)(C)c1cc(NC(=O)Nc2ccc(Oc3ccccc3)cc2F)n(-c2ccccc2)n1 [(ac), 1-(3-(tert-butyl)-1-phenyl-1H-pyrazol-5-yl)-3-(2-fluoro-4-phenoxyphenyl)urea] | 50 to 75%
4 | 500 to 1000 nM | CC(C)(C)c1cc(NC(=O)Nc2ccc(Oc3ccncc3)cc2F)n(-c2ccccc2)n1 [(ad), 1-(3-(tert-butyl)-1-phenyl-1H-pyrazol-5-yl)-3-(2-fluoro-4-(pyridin-4-yloxy)phenyl)urea] | 25 to 50%
5 | ≥ 5000 nM | CC(=O)Nc1cc(Oc2ccc(NC(=O)Nc3cc(C(C)(C)C)nn3-c3ccccc3)c(F)c2)ccn1 [(ae), N-(4-(4-(3-(3-(tert-butyl)-1-phenyl-1H-pyrazol-5-yl)ureido)-3-fluorophenoxy)pyridin-2-yl)acetamide] | 50 to 75%
6 | 1000 to 5000 nM | CC(C)(C)c1cc(NC(=O)Nc2ccc(Oc3ccc(F)cc3)cc2F)n(-c2ccccc2)n1 [(af), 1-(3-(tert-butyl)-1-phenyl-1 H-pyrazol-5-yl)-3-(2-fluoro-4-(4-fluorophenoxy)phenyl)urea] | 25 to 50%
7 | 1000 to 5000 nM | CNC(=O)c1cc(Oc2ccc(NC(=O)Nc3cc(C(C)(C)C)nn3-c3ccc4ncccc4c3)c(SC)c2)ccn1 [(ag), 4-(4-(3-(3-(tert-butyl)-1-(quinolin-6-yl)-1H-pyrazol-5-yl)ureido)-3-(methylthio)phenoxy)-N-methylpicolinamide] | ≥ 75%
8 | ≥ 5000 nM | CSc1cc(Oc2ccnc3[nH]c(=O)cnc23)ccc1NC(=O)Nc1ncc(C(C)(C)C)s1 [(ah), 1-(5-(tert-butyl)thiazol-2-yl)-3-(2-(methylthio)-4-((3-oxo-3,4-dihydropyrido[2,3-b]pyrazin-8-yl)oxy)phenyl)urea] | ≥ 75%
9 | 500 to 1000 nM | CNC(=O)c1cncc(Oc2ccc(NC(=O)Nc3cc(C(C)(C)C)nn3-c3ccccc3)c(SC)c2)c1 [(ai), 5-(4-(3-(3-(tert-butyl)-1-phenyl-1H-pyrazol-5-yl)ureido)-3-(methylthio)phenoxy)-N-methylnicotinamide] | –
10 | ≥ 5000 nM | CC(C)(C)c1cc(NC(=O)Nc2ccc(Oc3ccnc4[nH]c(=O)cnc34)cc2Cl)n(-c2ccccc2)n1 [(ak), 1-(3-(tert-butyl)-1-phenyl-1H-pyrazol-5-yl)-3-(2-chloro-4-((3-oxo-3,4-dihydropyrido[2,3-b]pyrazin-8-yl)oxy)phenyl)urea] | ≥ 75%
11 | ≥ 5000 nM | Cc1cc(Oc2ccnc3[nH]c(=O)cnc23)ccc1NC(=O)Nc1cc(C(C)(C)C)nn1-c1ccccc1 [(al), 1-(3-(tert-butyl)-1-phenyl-1 H-pyrazol-5-yl)-3-(2-methyl-4-((3-oxo-3,4-dihydropyrido[2,3-b]pyrazin-8-yl)oxy)phenyl)urea] | ≥ 75%
12 | < 500 nM | CCSc1cc(Oc2ccnc3[nH]c(=O)cnc23)ccc1NC(=O)Nc1cc(C(C)(C)C)nn1-c1ccccc1 [(am), 1-(3-(tert-butyl)-1-phenyl-1 H-pyrazol-5-yl)-3-(2-(ethylthio)-4-((3-oxo-3,4-dihydropyrido[2,3-b]pyrazin-8-yl)oxy)phenyl)urea] | ≥ 75%
13 | < 500 nM | CSc1cc(Oc2ccnc3c2CCC(=O)N3)ccc1NC(=O)Nc1cc(C(C)(C)C)nn1-c1ccccc1 [(an), 1-(3-(tert-butyl)-1-phenyl-1H-pyrazol-5-yl)-3-(2-(methylthio)-4-((7-oxo-5,6,7,8-tetrahydro-1,8-naphthyridin-4-yl)oxy)phenyl)urea] | ≥ 75%
14 | ≥ 5000 nM | CSc1cc(Oc2ccnc3[nH]c(=O)cnc23)ccc1NC(=O)Nc1cc(C(C)(C)C)nn1-c1ccc(Cl)cc1 [(ao), 1-(3-(tert-butyl)-1-(4-chlorophenyl)-1H-pyrazol-5-yl)-3-(2-(methylthio)-4-((3-oxo-3,4-dihydropyrido[2,3-b]pyrazin-8-yl)oxy)phenyl)urea] | ≥ 75%
15 | 500 to 1000 nM | CNC(=O)c1ccc(Oc2ccc(NC(=O)Nc3cc(C(C)(C)C)nn3-c3ccccc3)c(SC)c2)cn1 [(ap), 5-(4-(3-(3-(tert-butyl)-1-phenyl-1H-pyrazol-5-yl)ureido)-3-(methylthio)phenoxy)-N-methylpicolinamide] | 25 to 50%
16 | 500 to 1000 nM | CSc1cc(Oc2ccnc(NC(C)=O)c2)ccc1NC(=O)Nc1cc(C(C)(C)C)nn1-c1ccccc1 [(aq), N-(4-(4-(3-(3-(tert-butyl)-1-phenyl-1H-pyrazol-5-yl)ureido)-3-(methylthio)phenoxy)pyridin-2-yl)acetamide] | ≥ 75%
17 | ≥ 5000 nM | CSc1cc(Oc2ccnc3[nH]c(=O)cnc23)ccc1NC(=O)Nc1cc(C(C)(C)C)nn1-c1ccccn1 [(ar), 1-(3-(tert-butyl)-1-(pyridin-2-yl)-1H-pyrazol-5-yl)-3-(2-(methylthio)-4-((3-oxo-3,4-dihydropyrido[2,3-b]pyrazin-8-yl)oxy)phenyl)urea] | ≥ 75%
18 | < 500 nM | CSc1cc(Oc2ccnc3[nH]c(=O)cnc23)ccc1NC(=O)Nc1cc(C(C)(C)C)nn1-c1cccc(Cl)c1 [(as), 1-(3-(tert-butyl)-1-(3-chlorophenyl)-1H-pyrazol-5-yl)-3-(2-(methylthio)-4-((3-oxo-3,4-dihydropyrido[2,3-b]pyrazin-8-yl)oxy)phenyl)urea] | ≥ 75%
19 | ≥ 5000 nM | CSc1cc(Oc2ccnc3[nH]c(=O)cnc23)ccc1NC(=O)Nc1cc(C(C)(C)C)nn1-c1ccccc1Cl [(at), 1-(3-(tert-butyl)-1-(2-chlorophenyl)-1H-pyrazol-5-yl)-3-(2-(methylthio)-4-((3-oxo-3,4-dihydropyrido[2,3-b]pyrazin-8-yl)oxy)phenyl)urea] | ≥ 75%
20 | ≥ 5000 nM | CSc1cc(Oc2ccnc3c2ncc(=O)n3C)ccc1NC(=O)Nc1cc(C(C)(C)C)nn1-c1ccccc1 [(au), 1-(3-(tert-butyl)-1-phenyl-1H-pyrazol-5-yl)-3-(4-((4-methyl-3-oxo-3,4-dihydropyrido[2,3-b]pyrazin-8-yl)oxy)-2-(methylthio)phenyl)urea] | ≥ 75%
21 | – | COc1ccccc1-n1nc(C(C)(C)C)cc1NC(=O)Nc1ccc(Oc2ccnc3[nH]c(=O)cnc23)cc1SC [(av), 1-(3-(tert-butyl)-1-(2-methoxyphenyl)-1H-pyrazol-5-yl)-3-(2-(methylthio)-4-((3-oxo-3,4-dihydropyrido[2,3-b]pyrazin-8-yl)oxy)phenyl)urea] | ≥ 75%
22 | 500 to 1000 nM | COc1cccc(-n2nc(C(C)(C)C)cc2NC(=O)Nc2ccc(Oc3ccnc4[nH]c(=O)cnc34)cc2SC)c1 [(aw), 1-(3-(tert-butyl)-1-(3-methoxyphenyl)-1 H-pyrazol-5-yl)-3-(2-(methylthio)-4-((3-oxo-3,4-dihydropyrido[2,3-b]pyrazin-8-yl)oxy)phenyl)urea] | ≥ 75%
23 | ≥ 5000 nM | CSc1cc(Oc2ccnc3[nH]c(=O)cnc23)ccc1NC(=O)Nc1nc(-c2ccc(F)c(F)c2)cs1 [(ax), 1-(4-(3,4-difluorophenyl)thiazol-2-yl)-3-(2-(methylthio)-4-((3-oxo-3,4-dihydropyrido[2,3-b]pyrazin-8-yl)oxy)phenyl)urea] | 50 to 75%
